Values joined by “and” are separate entries in the source; they are usually repeats but may differ in a detail not shown here. Identical values can stand only once.
Experiments:
[1] = system: murine (syngeneic) and human cancer cell line xenograft models; set-up: method as in PMID 34965958, PMID 31235619; conditions: single agent; colorectal cancer, triple-negative breast cancer, diffuse large B-cell lymphoma models; cited from earlier work
advanced solid tumors = assay: antitumor activity by RECIST 1.1; format: in vivo, human
Description: Patients were continuously evaluated for adverse events throughout the study using the Common Terminology Criteria of Adverse Events (CTCAE v. 5). The patients underwent a clinical history and physical examination, an ECOG PS, a complete blood count (CBCs), chemistry, coagulation studies, urinalysis, a serum pregnancy test (as applicable), a triplicate ECG, an ophthalmology examination, and baseline tumor assessment at screening. During cycle 1, weekly history and physical examination, CBC, chemistry, coagulation parameters, urinalysis, and triplicate ECGs were performed; in subsequent cycles, weekly labs were limited to a CBC. Repeat ophthalmology examinations were performed at cycle 3, day 1, and at the end of treatment. Repeat tumor assessment was performed every 2 cycles (6 weeks) in accordance with RECIST 1.1. Descriptive statistics were used for baseline characteristics, safety assessments, pharmacokinetic variables, exploratory assessments, and efficacy analysis, including the duration of response and time to progression. Tables were used to summarize the data across the cohort of patients and various dosing groups. Geometric means were used to calculate plasma concentration-time profiles. Fold changes from baseline were used to calculate acetylation.

Structure (SMILES): CC(C)[C@H](N)C(=O)SCC/C=C/[C@@H]1CC(=O)NCc2nc(cs2)C(=O)NC(C)(C)C(=O)N[C@@H](C(C)C)C(=O)O1 [OKI-179, Bocodepsin]
- antitumor activity [1]: significant antitumor activity
- partial or complete response (advanced solid tumors; RECIST 1.1): No partial or complete response
- stable disease as the best response (advanced solid tumors; heavily pretreated patient population): 39%
- patients with stable disease for > 5 months (advanced solid tumors; in vivo): Six
- time in the study with stable disease (advanced solid tumors; two patients with platinum-resistant serous ovarian cancer, one value each): 7.5 months and 14.7 months

From PMC10778198, “First-in-Human Dose-Escalation Study of the Novel Oral Depsipeptide Class I-Targeting HDAC Inhibitor Bocodepsin (OKI-179) in Patients with Advanced Solid Tumors” (Cancers, 2023)
